One test deals with T1, human orexin-1 receptor (Homo sapiens, UniProt O43613).
T1 construct: expressed in transfected cells; host or cells: CHO (Chinese hamster ovary) cells, kept under G418
T1 sequence (O43613 1-425): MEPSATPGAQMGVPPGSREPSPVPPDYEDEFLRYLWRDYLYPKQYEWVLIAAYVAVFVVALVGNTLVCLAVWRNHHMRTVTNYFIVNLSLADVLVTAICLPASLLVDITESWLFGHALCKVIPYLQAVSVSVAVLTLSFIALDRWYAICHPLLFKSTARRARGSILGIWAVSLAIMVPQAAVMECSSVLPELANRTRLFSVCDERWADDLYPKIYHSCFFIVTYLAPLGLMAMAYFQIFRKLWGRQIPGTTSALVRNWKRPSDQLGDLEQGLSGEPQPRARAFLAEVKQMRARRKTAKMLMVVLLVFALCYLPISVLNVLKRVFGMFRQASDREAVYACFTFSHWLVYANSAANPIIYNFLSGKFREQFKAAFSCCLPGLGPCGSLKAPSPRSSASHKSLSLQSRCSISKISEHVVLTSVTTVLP
Kind of test: FLIPR intracellular calcium assay, orexin receptor antagonistic activity (OX1). Type of test: cell-based. To be noted: CHO cells expressing human orexin-1 receptor; 3 nM orexin-A; normalized to on-plate reference; *n = geometric mean from n values. As to the method:
(§1) The orexin receptor antagonistic activity of the compounds of formula (I) is determined in accordance with the following experimental method.
(§2) Chinese hamster ovary (CHO) cells expressing the human orexin-1 receptor and the human orexin-2 receptor, respectively, are grown in culture medium (Ham F-12 with L-Glutamine) containing 300 μg/ml G418, 100 U/ml penicillin, 100 μg/ml streptomycin and 10% heat inactivated fetal calf serum (FCS). The cells are seeded at 20′000 cells/well into 384-well black clear bottom sterile plates (Greiner). The seeded plates are incubated overnight at 37° C. in 5% CO2.
(§3) Human orexin-A as an agonist is prepared as 1 mM stock solution in MeOH:water (1:1), diluted in HBSS containing 0.1% bovine serum albumin (BSA), NaHCO3: 0.375 g/l and 20 mM HEPES for use in the assay at a final concentration of 3 nM.
(§4) Antagonists are prepared as 10 mM stock solution in DMSO, then diluted in 384-well plates using DMSO followed by a transfer of the dilutions into in HBSS containing 0.1% bovine serum albumin (BSA), NaHCO3: 0.375 g/l and 20 mM HEPES. On the day of the assay, 50 μl of staining buffer (HBSS containing 1% FCS, 20 mM HEPES, NaHCO3: 0.375 g/l, 5 mM probenecid (Sigma) and 3 μM of the fluorescent calcium indicator fluo-4 AM (1 mM stock solution in DMSO, containing 10% pluronic) is added to each well. The 384-well cell-plates are incubated for 50 min at 37° C. in 5% CO2 followed by equilibration at rt for 30-120 min before measurement.
(§5) Within the Fluorescent Imaging Plate Reader (FLIPR Tetra, Molecular Devices), antagonists are added to the plate in a volume of 10 μl/well, incubated for 10 min and finally 10 μl/well of agonist is added. Fluorescence is measured for each well at 1 second intervals, and the height of each fluorescence peak is compared to the height of the fluorescence peak induced by 3 nM orexin-A with vehicle in place of antagonist. For each antagonist, the IC50 value (the concentration of compound needed to inhibit 50% of the agonistic response) is determined and normalized using the obtained IC50 value of a on-plate reference compound. Optimized conditions were achieved by adjustment of pipetting speed and cell splitting regime. The calculated IC50 values of the compounds may fluctuate depending on the daily cellular assay performance. Fluctuations of this kind are known to those skilled in the art.
(Calcium assays in cells follow changes in intracellular calcium, usually with a dye or a luminescent sensor.)

The target in the next test is T2, human orexin-2 receptor (Homo sapiens, UniProt O43614).
T2 construct: expressed in transfected cells; host or cells: CHO (Chinese hamster ovary) cells, kept under G418
T2 sequence (O43614 1-444): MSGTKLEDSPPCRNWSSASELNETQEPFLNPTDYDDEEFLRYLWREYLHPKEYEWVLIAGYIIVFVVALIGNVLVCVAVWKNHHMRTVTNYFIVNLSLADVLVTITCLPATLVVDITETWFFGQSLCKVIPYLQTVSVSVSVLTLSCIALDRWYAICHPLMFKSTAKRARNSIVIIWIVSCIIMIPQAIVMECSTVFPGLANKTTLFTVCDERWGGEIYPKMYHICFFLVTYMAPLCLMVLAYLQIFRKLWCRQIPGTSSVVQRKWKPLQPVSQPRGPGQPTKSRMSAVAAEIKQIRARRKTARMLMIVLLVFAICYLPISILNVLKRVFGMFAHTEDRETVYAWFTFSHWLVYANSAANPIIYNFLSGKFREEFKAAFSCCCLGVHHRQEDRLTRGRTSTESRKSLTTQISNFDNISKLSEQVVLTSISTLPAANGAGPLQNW
Put plainly: FLIPR intracellular calcium assay, orexin receptor antagonistic activity (OX2). It is filed as cell-based. To be noted: CHO cells expressing human orexin-2 receptor; 3 nM orexin-A; normalized to on-plate reference; *n = geometric mean from n values. As to the method:
as §1, §2, §3, §4, §5

Structures are written as SMILES.

The term IC50 denotes the concentration needed to halve the response being measured. With `CCOc1ccccc1C1SCC(=O)N1Cc1ccc(F)c(F)c1` (stereo not drawn) [Example 65, 3-(3,4-Difluoro-benzyl)-2-(2-ethoxy-phenyl)-thiazolidin-4-one], the values for the IC50 at human orexin-1 receptor and at human orexin-2 receptor were 1430 nM and 21 nM, respectively.

As to `CCOc1ccccc1C1SCC(=O)N1Cc1ccc2c(c1)OCCO2` (stereo not drawn) [Example 72, 3-(2,3-Dihydro-benzo[1,4]dioxin-6-ylmethyl)-2-(2-ethoxy-phenyl)-thiazolidin-4-one], the IC50 at human orexin-1 receptor came to 778 nM; on human orexin-2 receptor, 115 nM.

For the compound `CCOc1ccccc1C1SCC(=O)N1Cc1cccc(OC(F)(F)F)c1` (stereo not drawn) [Example 81, 2-(2-Ethoxy-phenyl)-3-(3-trifluoromethoxy-benzyl)-thiazolidin-4-one], the IC50 turned out to be 2290 nM on human orexin-1 receptor and 13 nM on human orexin-2 receptor.

With `CCOc1ccccc1CN1C(=O)CSC1c1c(OC)cccc1OC` (stereo not drawn) [Example 101, 2-(2,6-Dimethoxy-phenyl)-3-(2-ethoxy-benzyl)-thiazolidin-4-one], the IC50 at human orexin-1 receptor turned out to be 488 nM; at human orexin-2 receptor, 51 nM.

Turning to `COc1cccc(OC)c1C1SCC(=O)N1Cc1cccc(OC(F)(F)F)c1` (stereo not drawn) [Example 119, 2-(2,6-Dimethoxy-phenyl)-3-(3-trifluoromethoxy-benzyl)-thiazolidin-4-one], the IC50 on human orexin-1 receptor stood at 355 nM; at human orexin-2 receptor, 61 nM.

As to `COc1cccc(OC)c1C1SCC(=O)N1Cc1ccc(SC(F)(F)F)cc1` (stereo not drawn) [Example 139, 2-(2,6-Dimethoxy-phenyl)-3-(4-trifluoromethylsulfanyl-benzyl)thiazolidin-4-one], the concentration for half-maximal inhibition (IC50) on human orexin-1 receptor was 440 nM; at human orexin-2 receptor it was 30 nM.

As for `CCOc1ccc(CN2C(=O)C(C)(C)SC2c2c(OC)cccc2OC)cc1` (stereo not drawn) [Example 175, 2-(2,6-Dimethoxy-phenyl)-3-(4-ethoxy-benzyl)-5,5-dimethyl-thiazolidin-4-one], the IC50 at human orexin-1 receptor was 86 nM; at human orexin-2 receptor, 663 nM.

With `COc1cccc(OC)c1C1SC(C)(C)C(=O)N1Cc1ccc2ccccc2c1` (stereo not drawn) [Example 176, 2-(2,6-Dimethoxy-phenyl)-5,5-dimethyl-3-naphthalen-2-ylmethyl-thiazolidin-4-one], the 50% inhibitory concentration (IC50) at human orexin-1 receptor was found to be 20 nM; at human orexin-2 receptor, 295 nM.

For the compound `COc1cccc(OC)c1C1SCC(=O)N1Cc1ccc(-c2ccccc2)cc1` (stereo not drawn) [Example 203, 3-Biphenyl-4-ylmethyl-2-(2,6-dimethoxy-phenyl)-thiazolidin-4-one], the half-inhibitory concentration (IC50) stood at 1830 nM at human orexin-1 receptor and 125 nM on human orexin-2 receptor.

In the case of `COc1cc(C2SC(C)C(=O)N2Cc2nc3ccccc3[nH]2)ccc1OCc1ccccc1` (stereo not drawn) [Example 265, 3-(1H-Benzoimidazol-2-ylmethyl)-2-(4-benzyloxy-3-methoxy-phenyl)-5-methyl-thiazolidin-4-one], the IC50 at human orexin-1 receptor amounted to 2630 nM; at human orexin-2 receptor, 533 nM.

In the case of `COc1cccc(OCCO)c1C1SCC(=O)N1Cc1ccc(OC(F)(F)F)cc1` (stereo not drawn) [Example 267, 2-[2-(2-Hydroxy-ethoxy)-6-methoxy-phenyl]-3-(4-trifluoromethoxy-benzyl)-thiazolidin-4-one], the results for the concentration for half-maximal inhibition (IC50) at human orexin-1 receptor and at human orexin-2 receptor were 263 nM and 24 nM, respectively.

Turning to `COc1cccc(OC)c1C1SCC(=O)N1Cc1ccc(Oc2cncnc2)cc1` (stereo not drawn) [Example 276, 2-(2,6-Dimethoxy-phenyl)-3-[4-(pyrimidin-5-yloxy)-benzyl]-thiazolidin-4-one], the values for the IC50 at human orexin-1 receptor and at human orexin-2 receptor were 1590 nM and 121 nM, respectively.

For the compound `COc1cccc(OC)c1C1SCC(=O)N1Cc1ccc(Oc2ccccn2)cc1` (stereo not drawn) [Example 277, 2-(2,6-Dimethoxy-phenyl)-3-[4-(pyridin-2-yloxy)-benzyl]-thiazolidin-4-one], the IC50 stood at 411 nM on human orexin-1 receptor and 8 nM at human orexin-2 receptor.

Regarding `COc1cccc(OC)c1C1SCC(=O)N1Cc1ccc(Oc2cccnc2)cc1` (stereo not drawn) [Example 278, 2-(2,6-Dimethoxy-phenyl)-3-[4-(pyridin-3-yloxy)-benzyl]-thiazolidin-4-one], the IC50 on human orexin-1 receptor turned out to be 1030 nM; on human orexin-2 receptor it was 10 nM.

Turning to `COc1cccc(OC)c1C1SCC(=O)N1Cc1ccc(Oc2cnccn2)cc1` (stereo not drawn) [Example 279, 2-(2,6-Dimethoxy-phenyl)-3-[4-(pyrazin-2-yloxy)-benzyl]-thiazolidin-4-one], the half-inhibitory concentration (IC50) at human orexin-1 receptor was found to be 1420 nM; on human orexin-2 receptor, 32 nM.

In the case of `COc1cccc(OC)c1C1SCC(=O)N1Cc1ccc(Oc2ccc(C)nn2)cc1` (stereo not drawn) [Example 280, 2-(2,6-Dimethoxy-phenyl)-3-[4-(6-methyl-pyridazin-3-yloxy)-benzyl]-thiazolidin-4-one], the figures for the concentration for half-maximal inhibition (IC50) on human orexin-1 receptor and on human orexin-2 receptor were 1740 nM and 121 nM, respectively.

Consider `COc1cccc(OC)c1C1SCC(=O)N1Cc1ccc(Oc2ccc(C)cn2)cc1` (stereo not drawn) [Example 281, 2-(2,6-Dimethoxy-phenyl)-3-[4-(5-methyl-pyridin-2-yloxy)-benzyl]-thiazolidin-4-one], for which the values for the concentration for half-maximal inhibition (IC50) on human orexin-1 receptor and on human orexin-2 receptor were 781 nM and 61 nM, respectively.

Consider `COc1cccc(Oc2ccc(CN3C(=O)CSC3c3c(OC)cccc3OC)cc2)n1` (stereo not drawn) [Example 282, 2-(2,6-Dimethoxy-phenyl)-3-[4-(6-methoxy-pyridin-2-yloxy)-benzyl]-thiazolidin-4-one], for which the results for the IC50 at human orexin-1 receptor and on human orexin-2 receptor were 1950 nM and 127 nM, respectively.

Consider `COc1cccc(OC)c1C1SCC(=O)N1Cc1ccc(Oc2cccc(C)n2)cc1` (stereo not drawn) [Example 283, 2-(2,6-Dimethoxy-phenyl)-3-[4-(6-methyl-pyridin-2-yloxy)-benzyl]-thiazolidin-4-one], for which the figures for the IC50 at human orexin-1 receptor and on human orexin-2 receptor were 942 nM and 51 nM, respectively.

For the compound `COc1cccc(OC)c1C1SCC(=O)N1Cc1ccc(Oc2cc(C)ccn2)cc1` (stereo not drawn) [Example 284, 2-(2,6-Dimethoxy-phenyl)-3-[4-(4-methyl-pyridin-2-yloxy)-benzyl]-thiazolidin-4-one], the IC50 at human orexin-1 receptor came out at 344 nM; on human orexin-2 receptor, 7 nM.

Regarding `COc1cccc(OC)c1C1SCC(=O)N1Cc1ccc(Oc2ncccc2C)cc1` (stereo not drawn) [Example 285, 2-(2,6-Dimethoxy-phenyl)-3-[4-(3-methyl-pyridin-2-yloxy)-benzyl]-thiazolidin-4-one], the IC50 at human orexin-1 receptor was found to be 1220 nM; on human orexin-2 receptor, 135 nM.

Take `COc1ccc(Oc2ccc(CN3C(=O)CSC3c3c(OC)cccc3OC)cc2)nc1` (stereo not drawn) [Example 286, 2-(2,6-Dimethoxy-phenyl)-3-[4-(5-methoxy-pyridin-2-yloxy)-benzyl]-thiazolidin-4-one]: the values for the IC50 on human orexin-1 receptor and on human orexin-2 receptor were 553 nM and 52 nM, respectively.

In the case of `COc1cccc(OC)c1C1N(Cc2ccc(OC(F)(F)F)cc2)C(=O)CS1(=O)=O` (stereo not drawn) [Example 288, 2-(2,6-Dimethoxy-phenyl)-1,1-dioxo-3-(4-trifluoromethoxy-benzyl)-thiazolidin-4-one], the IC50 on human orexin-1 receptor turned out to be 166 nM; at human orexin-2 receptor it was 6 nM.

Turning to `COc1cccc(OC)c1C1N(Cc2ccc(OC(C)C)cc2)C(=O)CS1(=O)=O` (stereo not drawn) [Example 289, 2-(2,6-Dimethoxy-phenyl)-3-(4-isopropoxy-benzyl)-1,1-dioxo-thiazolidin-4-one], the IC50 came to 181 nM at human orexin-1 receptor and 16 nM at human orexin-2 receptor.

The values are drawn from patent US20120088759A1, “THIAZOLIDIN-4-ONE AND [1,3]-THIAZINAN-4-ONE COMPOUNDS AS OREXIN RECEPTOR ANTAGONISTS” (priority 2009, published 2012).
